In brackets after ≈: the same amount, converted by molar mass. Like-named read-outs stand apart in the source and are kept apart here. One block for each compound: values may come before it.
Assays:
intact CRAB bacteria = test: diSC3-5 membrane depolarization; type: cell-based, A. baumannii; conditions: 4 μM
Description: Depolarization ability by peptides was measured using a membrane potential-sensitive dye 3,3′-dipropylthiadicarbocyanine iodide (diSC3-5) using intact CRAB bacteria. CRAB cells were washed using a wash buffer (5 mM HEPES, 20 mM glucose, pH 7.4). The cells were resuspended in a dilution buffer (5 mM HEPES, 20 mM glucose, 0.1 M KCl, pH 7.4) and then cultured with a diSC3-5 dye (1 hour). Finally, the fluorescence changes of cells treated with various concentrations of peptides, a negative control (cells with dye) and a positive control (1% Triton X-100) were recorded using a fluorescence spectrophotometer, and the results are expressed as percent depolarization.

[1] = system: CRAB 12005 (carbapenem-resistant A. baumanii CCARM); test: MIC, broth dilution; type: cell-based, A. baumannii; conditions: 16 hours, read-out: Minimal inhibitory concentration (MIC), CRAB 12005
From the text: (§1) Among the bacterial strains used in the experiment, Escherichia coli KCTC 1682 was obtained from the Korean Collection for Type Cultures (KCTC) (Jeongeup, Korea), Acinetobacter baumannii KCCM 40203 and Pseudomonas aeruginosa KCCM 11328 were obtained from the Korean Culture Center of Microorganisms (KCCM) (Seoul, Korea), and Klebsiella pneumonia NCCP 16054 was obtained from the National Culture Collection for Pathogens (NCCP) (Osong, Korea). In addition, carbapenem-resistant E. coli NCCP16044 and carbapenem-resistant Klebsiella pneumonia NCCP 15782 were obtained from the NCCP, and three types of carbapenem-resistant A. baumanii CCARM 12004-6 were obtained from the Culture Collection of Antimicrobial Resistance Microbes (CCARM) (Cheongju City, Korea). The E. coli K1 (ATCC700973) strain used in the animal experiments was obtained from the American Type Culture Collection (ATCC) ([…]).
(§2) The antimicrobial activities of the peptides were measured by a minimal inhibitory concentration (MIC) analysis. The MIC was determined using a broth dilution method. All bacterial strains were grown overnight at 37° C. in a Muller-Hinton (MH) medium.

[2] = system: CRAB 12004 (carbapenem-resistant A. baumanii CCARM); test: MIC, broth dilution; type: cell-based, A. baumannii; conditions: 16 hours, read-out: Minimal inhibitory concentration (MIC), CRAB 12004
From the text: as §1, §2

[3] = system: CRAB 12006 (carbapenem-resistant A. baumanii CCARM); test: MIC, broth dilution; type: cell-based, A. baumannii; conditions: 16 hours, read-out: Minimal inhibitory concentration (MIC), CRAB 12006
From the text: as §1, §2

[4] = system: Acinetobacter baumannii KCCM 40203; test: MIC, broth dilution; type: cell-based; conditions: standard Gram-negative bacteria, 16 hours
From the text: as §1, §2

[5] = system: Pseudomonas aeruginosa KCCM 11328; test: MIC, broth dilution; type: cell-based; conditions: standard Gram-negative bacteria, 16 hours
From the text: as §1, §2

[6] = system: Klebsiella pneumonia NCCP 16054; test: MIC, broth dilution; type: cell-based; conditions: standard Gram-negative bacteria, 16 hours
From the text: as §1, §2

[7] = system: carbapenem-resistant Klebsiella pneumonia NCCP 15782 (CRKP 15782); test: MIC, broth dilution; type: cell-based; conditions: 16 hours
From the text: as §1, §2

[8] = system: carbapenem-resistant E. coli NCCP16044 (CREC 16044); test: microbe, parasite or virus in culture; type: cell-based; conditions: 16 hours, read-out: Minimal inhibitory concentration (MIC), CREC 16044
From the text: as §1, §2

[9] = system: Escherichia coli KCTC 1682; test: MIC, broth dilution; type: cell-based; conditions: standard Gram-negative bacteria, 16 hours, read-out: Minimal inhibitory concentration (MIC), E. coli
From the text: In addition, carbapenem-resistant E. coli NCCP16044 and carbapenem-resistant Klebsiella pneumonia NCCP 15782 were obtained from the NCCP, and three types of carbapenem-resistant A. baumanii CCARM 12004-6 were obtained from the Culture Collection of Antimicrobial Resistance Microbes (CCARM) (Cheongju City, Korea). The E. coli K1 (ATCC700973) strain used in the animal experiments was obtained from the American Type Culture Collection (ATCC) ([…]).
as §2

CRAB 12006 = test: Crystal violet biofilm inhibition; type: cell-based, A. baumannii; conditions: 0-32 μM, 16 h
Description: A crystal-violet-based assay was used to investigate the biofilm inhibition ability of R-Pro9-3D against A. baumannii standard bacteria and a CRAB 12006 line. […] Thereafter, bacterial cells were fixed with methanol (100%, 15 minutes) and then stained with crystal violet (0.1% (w/v) in 0.25% (v/v) acetic acid for 1 hour). The plate was washed with distilled H2O, dried and dissolved in ethanol (100% v/v). Color development, which indicates the extent of biofilm, was measured at 595 nm and expressed as biofilm formation percentage.

SMILES: CC[C@H](C)[C@H](NC(=O)CN)C(=O)NCC(=O)N[C@@H](C)C(=O)N[C@H](C(=O)N[C@@H](CC(C)C)C(=O)N[C@@H](CCCCN)C(=O)N[C@H](C(=O)N[C@@H](CC(C)C)C(=O)N[C@H](C(=O)N[C@H](C(=O)NCC(=O)N[C@@H](CC(C)C)C(=O)N1CCC[C@H]1C(=O)N[C@@H](C)C(=O)N[C@@H](CC(C)C)C(=O)N[C@H](C(=O)N[C@@H](CO)C(=O)N[C@@H](Cc1c[nH]c2ccccc12)C(=O)N[C@H](C(=O)N[C@@H](CCCCN)C(=O)N[C@@H](CCCNC(=N)N)C(=O)N[C@@H](CCCCN)C(=O)N[C@@H](CCCNC(=N)N)C(=O)N[C@@H](CCC(N)=O)C(=O)N[C@@H](CCC(N)=O)C(N)=O)[C@@H](C)CC)[C@@H](C)CC)[C@@H](C)O)[C@@H](C)O)C(C)C)C(C)C [Melittin]
Depolarization (intact CRAB bacteria): 75.6%
MIC [1]: 4 µM (≈ 11.4 µg/mL)
MIC [2]: 4 µM (≈ 11.4 µg/mL)
MIC [3]: 4 µM (≈ 11.4 µg/mL)
Minimal inhibitory concentration (MIC), A. baumannii [4]: 4 µM (≈ 11.4 µg/mL)
Minimal inhibitory concentration (MIC), P. aeruginosa [5]: 16 µM (≈ 45.5 µg/mL)
Minimal inhibitory concentration (MIC), K. pneumonia [6]: 32 µM (≈ 91.1 µg/mL)
Minimal inhibitory concentration (MIC), CRKP 15782 [7]: 32 µM (≈ 91.1 µg/mL)
MIC [8]: 8 µM (≈ 22.8 µg/mL)
MIC [9]: 8 µM (≈ 22.8 µg/mL)

MIC ([8]; Escherichia coli): 8 µM (≈ 3.07 µg/mL)
MIC ([9]; Escherichia coli, KCTC1682): 0.25 µM (≈ 0.0959 µg/mL)
SMILES: C[C@@H](O)[C@H]1C(=O)N2C(C(=O)O)=C(S[C@@H]3CN[C@H](C(=O)N(C)C)C3)[C@H](C)[C@H]12 [Meropenem]
Biofilm formation inhibition, CRAB 12006 (CRAB 12006): remarkably lower
